# Source: patent US8815509B2, “Fluorescence-based assay for the rapid detection and quantification of deoxyribonucleoside triphosphates” (University of Southern California, priority 2011, dated 2014)
# Test system: HCT116 human colorectal cancer cells
# Assay: Intracellular dNTP pools of HCT116 cells after treatment with thymidylate synthase inhibitors, measured with the fluorescence-based dNTP assay
# Settings: for Intracellular dGTP concentration / Intracellular dCTP concentration / Intracellular dATP concentration / Intracellular dTTP concentration: 4 h, Mean ± SD; for Intracellular dGTP concentration: control 4.7 ± 0.8; for Intracellular dCTP concentration: control 10.5 ± 0.2; for Intracellular dATP concentration: control 13.6 ± 1.17; for Intracellular dTTP concentration: control 20.4 ± 0.77; for dGTP after treatment: depletion from 4.7; for dCTP levels after treatment: reduction from 10.5; for dTTP after treatment: vehicle-treated cells 20.4
# [1] = HCT116, 2.5 μmol/L pemetrexed, 4 hours
# Procedure: Reaction mixtures contained primer, probe and template at an equimolar final concentration of 0.4 mmol/L. MgCl2 was included at a final concentration of 2 mmol/L. Non-limiting dNTPs were included in the reaction mix in excess at a final concentration of 100 mmol/L (the dNTP to be assayed was excluded). AmpliTaq Gold DNA polymerase was added at 0.875 U/reaction, 2.5 μl of 10×PCR buffer 2 added and nuclease-free ddH2O added to a final reaction volume of 25 μl. For analysis of cell extracts, the volume of ddH20 was modified to accommodate the addition of 2.5 μl of cell extract. For dUTP determination from cell extracts, the volume of ddH20 was further modified to accommodate an additional 1 μl of dUTPase (10 ng/μl). Thermal profiling and fluorescence detection was performed using the ‘isothermal’ program on board an Applied Biosystems 7500 Real-Time PCR System. For analysis of dNTPs, the thermal profile consisted of a 10 min 95° C. step to ‘hot-start’ the Taq polymerase and a primer extension time of up to 30 min at 60° C. depending on the application. Raw fluorescence spectra for 6-FAM was measured using filter A at specified time intervals (typically every 5 min) to follow assay progression using Sequence Detection Software (SDS Version 1.4, Applied Biosystems) and exported and analyzed in Microsoft Excel (Microsoft, Redmond Wash.) and Prism (GraphPad Software, La Jolla Calif.). In all cases, fluorescence values for blank reactions (limiting dNTP omitted) were subtracted to give normalized fluorescence units (NFU) to account for background probe fluorescence.
# The human colorectal cancer cell line HCT116 was purchased from American Type Culture Collection (Lockville, Md.). HCT116 cells were maintained in McCoy's 5A media (Invitrogen) supplemented with 10% fetal bovine serum (Lonza, Walkersville, Md.) with penicillin/streptomycin, sodium pyruvate and L-glutamine (Invitrogen, Carlsbad, Calif.). For pemetrexed analyses, cells were incubated in folate-depleted RPMI supplemented with 25 nmol/L 5-Formyltetrahydrofolate, 10% fetal bovine serum (Lonza), penicillin/streptomycin, sodium pyruvate and L-glutamine for 24 h prior to treatment. Cells were maintained in a humidified Form a incubator (Form a, Waltham, Mass.) at 37° C. with 5% CO2 and routinely screened for mycoplasma using the MycoALERT detection kit (Lonza) and verified mycoplasma negative.
# The relationship between assay response and known concentrations of the analytes (dNTPs) was analyzed by a 5-point (minimum) calibration curve. Calibration curves were obtained by assaying serial dilutions of dNTP standards diluted with ultra-pure nuclease-free water to the desired concentration and evaluated using regression coefficients (R^2). Samples were assayed in triplicate, and experiments were repeated on three independent occasions as appropriate. The limit of detection (LOD) was defined as the mean value of the negative blind controls plus 3 standard deviations (SD) of the mean, i.e. the concentration with a signal to noise ratio of 3:1. The limit of quantification (LOQ) was defined as the mean value of the negative controls plus 5 SD determined from three independent assays (signal to noise ratio of 5:1). Coefficient of variation (% CV) values were calculated from the cumulative mean and SD of replicates. Inter-assay % CVs were calculated from 3 independent experiments performed on different days. The intra-assay % CV represents the mean±SD % CV obtained from assaying replicate samples within 3 identical yet independent assays performed on the same day. The accuracy was assessed by comparing the nominal dNTP concentrations with the corresponding calculated values based on the calibration curve and presented as a percentage.
compound,measurement,setting,value
"O=c1[nH]cc(F)c(=O)[nH]1 [5-FU, 5-fluorouracil]",Intracellular dGTP concentration,"HCT116, 5 μmol/L 5-FU",0.88 ± 0.1 pmoles × 10^6 cells
same,Intracellular dCTP concentration,"HCT116, 5 μmol/L 5-FU",8.7 ± 0.24 pmoles × 10^6 cells
same,Intracellular dATP concentration,"HCT116, 5 μmol/L 5-FU",13.9 ± 0.33 pmoles × 10^6 cells
same,Intracellular dTTP concentration,"HCT116, 5 μmol/L 5-FU",1.64 ± 0.16 pmoles × 10^6 cells
same,dGTP after treatment,"HCT116, 5 μmol/L 5-FU, 4 hours",0.9 pmoles per 10^6 cells
same,dCTP levels after treatment,"HCT116, 5 μmol/L 5-FU, 4 hours",8.7 pmoles per 10^6
same,dTTP after treatment,"HCT116, 5 μmol/L 5-FU, 4 hours",1.6 pmoles per 10^6 cells
"Nc1nc2[nH]cc(CCc3ccc(C(=O)N[C@@H](CCC(=O)O)C(=O)O)cc3)c2c(=O)[nH]1 [PTX, pemetrexed]",Intracellular dGTP concentration,"HCT116, 2.5 μmol/L PTX",1.14 ± 0.3 pmoles × 10^6 cells
same,Intracellular dCTP concentration,"HCT116, 2.5 μmol/L PTX",11.1 ± 2.5 pmoles × 10^6 cells
same,Intracellular dATP concentration,"HCT116, 2.5 μmol/L PTX",13.4 ± 1.68 pmoles × 10^6 cells
same,Intracellular dTTP concentration,"HCT116, 2.5 μmol/L PTX",3.93 ± 0.8 pmoles × 10^6 cells
same,dGTP after treatment,[1],1.1 pmoles per 10^6 cells
same,dTTP after treatment,[1],3.9 pmoles per 10^6 cells
"O=c1[nH]c(=O)n([C@H]2C[C@H](O)[C@@H](CO)O2)cc1F [FUdR, fluorodeoxyuridine]",Intracellular dGTP concentration,"HCT116, 1 μmol/L FUdR",0.43 ± 0.11 pmoles × 10^6 cells
same,Intracellular dCTP concentration,"HCT116, 1 μmol/L FUdR",8 ± 0.04 pmoles × 10^6 cells
same,Intracellular dATP concentration,"HCT116, 1 μmol/L FUdR",14.5 ± 0.13 pmoles × 10^6 cells
same,Intracellular dTTP concentration,"HCT116, 1 μmol/L FUdR",4.5 ± 0.71 pmoles × 10^6 cells
same,Depletion of dTTP versus vehicle-treated cells,"HCT116, 1 μmol/L FUdR, 4 hours",> 4 fold
same,dGTP after treatment,"HCT116, 1 μmol/L FUdR, 4 hours",0.43 pmoles per 10^6 cells
same,dCTP levels after treatment,"HCT116, 1 μmol/L FUdR, 4 hours",8 pmoles per 10^6
same,dTTP after treatment,"HCT116, 1 μmol/L FUdR, 4 hours",4.5 pmoles per 10^6 cells
